Read-outs that look alike come from different tables or passages of the source.
Assays:
[1] = molecular target: c-Raf (Homo sapiens, UniProt P04049); assay: Luciferase-coupled chemiluminescence kinase assay (ATP consumption), c-Raf; format: biochemical
Outline: (§1)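 Read-out: percent ATP consumed, quantified by luciferase/luciferin chemiluminescence after the kinase step. ATP consumption was held at 25-60%. Kinase ([…]) plus compound were preincubated 30 min at RT in Tris pH 7.5 buffer with MgCl2, Triton and DTT, then reacted with ATP for 3 h.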

[2] = molecular target: B-Raf (Homo sapiens, UniProt P15056); assay: Luciferase-coupled chemiluminescence kinase assay (ATP consumption), B-Raf; format: biochemical
Outline: as §1

[3] = read-out: cRaf-1 (inhibition indicated as IC50)
[4] = read-out: bRaf (inhibition indicated as IC50)

Chain of c-Raf (P04049 whole entry): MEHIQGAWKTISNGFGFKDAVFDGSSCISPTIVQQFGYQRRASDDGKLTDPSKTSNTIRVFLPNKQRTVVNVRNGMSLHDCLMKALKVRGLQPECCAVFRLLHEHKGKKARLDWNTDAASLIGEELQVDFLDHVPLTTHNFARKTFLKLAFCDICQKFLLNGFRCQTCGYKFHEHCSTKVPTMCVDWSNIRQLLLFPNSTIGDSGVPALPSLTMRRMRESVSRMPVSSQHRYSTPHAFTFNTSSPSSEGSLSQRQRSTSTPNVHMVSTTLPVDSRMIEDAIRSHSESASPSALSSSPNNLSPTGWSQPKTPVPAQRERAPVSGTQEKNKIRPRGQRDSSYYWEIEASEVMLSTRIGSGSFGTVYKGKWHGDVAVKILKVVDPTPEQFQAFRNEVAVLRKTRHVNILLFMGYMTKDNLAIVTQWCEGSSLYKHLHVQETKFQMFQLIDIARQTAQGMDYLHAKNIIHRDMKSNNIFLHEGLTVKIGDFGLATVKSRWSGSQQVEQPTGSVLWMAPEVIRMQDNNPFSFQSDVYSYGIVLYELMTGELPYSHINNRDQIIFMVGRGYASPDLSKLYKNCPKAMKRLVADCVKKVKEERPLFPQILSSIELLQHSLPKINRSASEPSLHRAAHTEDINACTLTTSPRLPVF
Chain of B-Raf (P15056 whole entry): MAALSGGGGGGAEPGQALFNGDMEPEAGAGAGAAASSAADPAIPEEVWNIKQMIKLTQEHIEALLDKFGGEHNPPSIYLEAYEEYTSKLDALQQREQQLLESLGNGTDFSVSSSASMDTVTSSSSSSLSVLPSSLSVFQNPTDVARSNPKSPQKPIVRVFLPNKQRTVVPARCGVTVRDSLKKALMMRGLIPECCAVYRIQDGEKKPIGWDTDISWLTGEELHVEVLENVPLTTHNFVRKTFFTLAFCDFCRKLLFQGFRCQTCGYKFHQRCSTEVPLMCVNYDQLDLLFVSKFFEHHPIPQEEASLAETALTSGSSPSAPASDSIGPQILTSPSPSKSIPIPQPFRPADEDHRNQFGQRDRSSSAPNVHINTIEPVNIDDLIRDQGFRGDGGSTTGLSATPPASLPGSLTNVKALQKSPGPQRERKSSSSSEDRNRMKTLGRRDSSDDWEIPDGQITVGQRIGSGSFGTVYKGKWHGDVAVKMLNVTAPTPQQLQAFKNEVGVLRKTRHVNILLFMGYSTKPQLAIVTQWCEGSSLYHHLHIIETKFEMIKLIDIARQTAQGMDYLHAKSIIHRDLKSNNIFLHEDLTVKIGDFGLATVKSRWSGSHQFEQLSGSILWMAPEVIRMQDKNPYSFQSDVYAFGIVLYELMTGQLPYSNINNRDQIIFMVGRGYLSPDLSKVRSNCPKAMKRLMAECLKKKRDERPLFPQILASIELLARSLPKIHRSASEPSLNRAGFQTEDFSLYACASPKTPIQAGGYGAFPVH

COC(=O)Nc1nc2cc(C3(O)c4ccccc4C(=O)N3CC3CCCCC3)ccc2[nH]1 (stereo not drawn) [Entry 161, methyl {5-[2-(cyclohexylmethyl)-1-hydroxy-3-oxo-2,3-dihydro-1H-isoindol-1-yl]-1H-benzimidazol-2-yl}carbamate]
IC50 ([1]; read-out: cRaf-1 IC50): < 100 nM
IC50 ([2]; read-out: bRaf IC50): < 100 nM

O=C(Nc1nc2ccc(C3(O)c4ccccc4C(=O)N3c3cccc(Cl)c3F)cc2[nH]1)OCCF (stereo not drawn) [Entry 341, 2-fluoroethyl {6-[2-(3-chloro-2-fluorophenyl)-1-hydroxy-3-oxo-2,3-dihydro-1H-isoindol-1-yl]-1H-benzimidazol-2-yl}carbamate]
IC50 [1, 3]: < 100 nM
IC50 [2, 4]: < 100 nM

CCc1cccc(N2C(=O)c3ccccc3C2(O)c2ccc3c(c2)NC(=O)CO3)c1 (stereo not drawn) [Entry 76, 6-[2-(3-ethylphenyl)-1-hydroxy-3-oxo-2,3-dihydro-1H-isoindol-1-yl]-2H-1,4-benzoxazin-3(4H)-one]
IC50 ([1]; read-out: cRaf-1 IC50): 100 to 1000 nM
IC50 ([2]; read-out: bRaf IC50): 100 to 1000 nM

COc1cccc(CN2C(=O)c3ccccc3C2(O)c2ccc3c(c2)NC(=O)CO3)c1OC (stereo not drawn) [Entry 54]
IC50 ([1]; read-out: cRaf-1 IC50): ≥ 10000 nM
IC50 ([2]; read-out: bRaf IC50): ≥ 10000 nM

COC(=O)Nc1nc2ccc(C(=O)c3ccccc3C(=O)Nc3cc(Cl)ccc3F)cc2[nH]1 [Entry 402, methyl {6-[(2-{[(5-chloro-2-fluorophenyl)amino]carbonyl}phenyl)carbonyl]-1H-benzimidazol-2-yl}carbamate]
IC50 [1, 3]: < 100 nM
IC50 [2, 4]: < 100 nM

O=C(Nc1nc2cc(C3(O)c4ccccc4C(=O)N3Cc3ccccc3)ccc2[nH]1)OCC1CCNCC1 (stereo not drawn) [Entry 152, piperidin-4-ylmethyl {5-[1-hydroxy-3-oxo-2-(phenylmethyl)-2,3-dihydro-1H-isoindol-1-yl]-1H-benzimidazol-2-yl}carbamate]
IC50 ([1]; read-out: cRaf-1 IC50): 100 to 1000 nM
IC50 ([2]; read-out: bRaf IC50): < 100 nM

CCc1cccc(N2C(=O)c3ccccc3C2(O)c2ccc3[nH]c(NC(=O)OC)nc3c2)c1F (stereo not drawn) [Entry 359, methyl {5-[2-(3-ethyl-2-fluorophenyl)-1-hydroxy-3-oxo-2,3-dihydro-1H-isoindol-1-yl]-1H-benzimidazol-2-yl}carbamate]
IC50 [1, 3]: < 100 nM
IC50 [2, 4]: < 100 nM

CC(C)(C)n1c(N)nc2cc(C3(O)c4ccccc4C(=O)N3Cc3ccccc3)ccc21 (stereo not drawn) [Entry 100, 3-[2-amino-1-(1,1-dimethylethyl)-1H-benzimidazol-5-yl]-3-hydroxy-2-(phenylmethyl)-2,3-dihydro-1H-isoindol-1-one]
IC50 ([1]; read-out: cRaf-1 IC50): ≥ 10000 nM
IC50 ([2]; read-out: bRaf IC50): ≥ 10000 nM

CN1CCC(COC(=O)Nc2nc3cc(C4(O)c5ccccc5C(=O)N4Cc4ccccc4)ccc3[nH]2)CC1 (stereo not drawn) [Entry 314, (1-methylpiperidin-4-yl)methyl {5-[1-hydroxy-3-oxo-2-(phenylmethyl)-2,3-dihydro-1H-isoindol-1-yl]-1H-benzimidazol-2-yl}carbamate]
IC50 [1, 3]: < 100 nM
IC50 [2, 4]: < 100 nM

CCOC(=O)c1cccc(N2C(=O)c3ccccc3C2(O)c2ccc3c(c2)NC(=O)CO3)c1 (stereo not drawn) [Entry 70, ethyl 3-[1-hydroxy-3-oxo-1-(3-oxo-3,4-dihydro-2H-1,4-benzoxazin-6-yl)-1,3-dihydro-2H-isoindol-2-yl]benzoate]
IC50 ([1]; read-out: cRaf-1 IC50): ≥ 10000 nM
IC50 ([2]; read-out: bRaf IC50): ≥ 10000 nM

O=C1c2ccccc2C(O)(c2ccc3[nH]c(Nc4nccs4)nc3c2)N1c1cccc(Cl)c1F (stereo not drawn) [Entry 356, 2-(3-chloro-2-fluorophenyl)-3-hydroxy-3-[2-(1,3-thiazol-2-ylamino)-1H-benzimidazol-5-yl]-2,3-dihydro-1H-isoindol-1-one]
IC50 [1, 3]: < 100 nM
IC50 [2, 4]: < 100 nM

COC(=O)Nc1nc2ccc(C3(O)c4ccccc4C(=O)N3c3ccc(Cl)c(Cl)c3F)cc2[nH]1 (stereo not drawn) [Entry 228, methyl {6-[2-(3,4-dichloro-2-fluorophenyl)-1-hydroxy-3-oxo-2,3-dihydro-1H-isoindol-1-yl]-1H-benzimidazol-2-yl}carbamate]
IC50 ([1]; read-out: cRaf-1 IC50): < 100 nM
IC50 ([2]; read-out: bRaf IC50): < 100 nM

O=C1COc2ccc(C3(O)c4ccccc4C(=O)N3Cc3ccccc3C(F)(F)F)cc2N1 (stereo not drawn) [Entry 50, 6-(1-hydroxy-3-oxo-2-{[2-(trifluoromethyl)phenyl]methyl}-2,3-dihydro-1H-isoindol-1-yl)-2H-1,4-benzoxazin-3(4H)-one]
IC50 ([1]; read-out: cRaf-1 IC50): ≥ 10000 nM
IC50 ([2]; read-out: bRaf IC50): ≥ 10000 nM

CCN(CC)CCCC(=O)Nc1nc2cc(C3(O)c4ccccc4C(=O)N3Cc3ccccc3)ccc2[nH]1 (stereo not drawn) [Entry 277, 4-(diethylamino)-N-{5-[1-hydroxy-3-oxo-2-(phenylmethyl)-2,3-dihydro-1H-isoindol-1-yl]-1H-benzimidazol-2-yl}butanamide]
IC50 [1, 3]: < 100 nM
IC50 [2, 4]: < 100 nM

COC(=O)Nc1nc2cc(C3(O)c4ccccc4C(=O)N3C(C)c3ccccc3F)ccc2[nH]1 (stereo not drawn) [Entry 172, methyl (5-{2-[1-(2-fluorophenyl)ethyl]-1-hydroxy-3-oxo-2,3-dihydro-1H-isoindol-1-yl}-1H-benzimidazol-2-yl)carbamate]
IC50 ([1]; read-out: cRaf-1 IC50): 1000 to 10000 nM
IC50 ([2]; read-out: bRaf IC50): 1000 to 10000 nM

O=C1c2ccccc2C(O)(c2ccc3cn[nH]c3c2)N1Cc1ccccc1 (stereo not drawn) [Entry 95, 3-hydroxy-3-(1H-indazol-6-yl)-2-(phenylmethyl)-2,3-dihydro-1H-isoindol-1-one]
IC50 ([1]; read-out: cRaf-1 IC50): ≥ 10000 nM
IC50 ([2]; read-out: bRaf IC50): ≥ 10000 nM

O=C1c2ccccc2C(O)(c2ccc3[nH]c(Nc4ncc(Cl)cn4)nc3c2)N1c1cccc(Cl)c1F (stereo not drawn) [Entry 384, 2-(3-chloro-2-fluorophenyl)-3-{2-[(5-chloropyrimidin-2-yl)amino]-1H-benzimidazol-5-yl}-3-hydroxy-2,3-dihydro-1H-isoindol-1-one]
IC50 [1, 3]: < 100 nM
IC50 [2, 4]: < 100 nM

Cc1c(Cl)cccc1N1C(=O)c2ccccc2C1(O)c1ccc2c(c1)NC(=O)CO2 (stereo not drawn) [Entry 75, 6-[2-(3-chloro-2-methylphenyl)-1-hydroxy-3-oxo-2,3-dihydro-1H-isoindol-1-yl]-2H-1,4-benzoxazin-3(4H)-one]
IC50 ([1]; read-out: cRaf-1 IC50): 100 to 1000 nM
IC50 ([2]; read-out: bRaf IC50): 100 to 1000 nM

O=C(CCN1CCCCC1)Nc1nc2cc(C3(O)c4ccccc4C(=O)N3Cc3ccccc3)ccc2[nH]1 (stereo not drawn) [Entry 274, N-{5-[1-hydroxy-3-oxo-2-(phenylmethyl)-2,3-dihydro-1H-isoindol-1-yl]-1H-benzimidazol-2-yl}-3-piperidin-1-ylpropanamide]
IC50 [1, 3]: < 100 nM
IC50 [2, 4]: < 100 nM

COC(=O)Nc1nc2cc(C3(O)c4ccccc4C(=O)N3c3ccc(F)c(Cl)c3)ccc2[nH]1 (stereo not drawn) [Entry 194, methyl {5-[2-(3-chloro-4-fluorophenyl)-1-hydroxy-3-oxo-2,3-dihydro-1H-isoindol-1-yl]-1H-benzimidazol-2-yl}carbamate]
IC50 ([1]; read-out: cRaf-1 IC50): < 100 nM
IC50 ([2]; read-out: bRaf IC50): < 100 nM

C#Cc1ccc(F)c(N2C(=O)c3ccccc3C2(O)c2ccc3nc(NC(=O)OC)[nH]c3c2)c1 (stereo not drawn) [Entry 363, methyl {6-[2-(5-ethynyl-2-fluorophenyl)-1-hydroxy-3-oxo-2,3-dihydro-1H-isoindol-1-yl]-1H-benzimidazol-2-yl}carbamate]
IC50 [1, 3]: < 100 nM
IC50 [2, 4]: < 100 nM

O=C(Nc1nc2cc(C3(O)c4ccccc4C(=O)N3Cc3ccccc3)ccc2[nH]1)OCC1CCCO1 (stereo not drawn) [Entry 186, tetrahydrofuran-2-ylmethyl {5-[1-hydroxy-3-oxo-2-(phenylmethyl)-2,3-dihydro-1H-isoindol-1-yl]-1H-benzimidazol-2-yl}carbamate]
IC50 ([1]; read-out: cRaf-1 IC50): < 100 nM
IC50 ([2]; read-out: bRaf IC50): < 100 nM

COC(=O)Nc1nc2cc(C3(O)c4ccccc4C(=O)N3c3cccnc3)ccc2[nH]1 (stereo not drawn) [Entry 242, methyl [5-(1-hydroxy-3-oxo-2-pyridin-3-yl-2,3-dihydro-1H-isoindol-1-yl)-1H-benzimidazol-2-yl]carbamate]
IC50 ([1]; read-out: cRaf-1 IC50): < 100 nM
IC50 ([2]; read-out: bRaf IC50): 100 to 1000 nM

COC(=O)Nc1nc2cc(C3(O)c4ccccc4C(=O)N3c3cc(Cl)cc(I)c3C)ccc2[nH]1 (stereo not drawn) [Entry 358, methyl {5-[2-(5-chloro-3-iodo-2-methylphenyl)-1-hydroxy-3-oxo-2,3-dihydro-1H-isoindol-1-yl]-1H-benzimidazol-2-yl}carbamate]
IC50 [1, 3]: 100 to 1000 nM
IC50 [2, 4]: 100 to 1000 nM

COC(=O)Nc1nc2ccc(C(=O)c3ccccc3C(=O)Nc3cccc(Br)c3)cc2[nH]1 [Entry 394, methyl {6-[(2-{[(3-bromophenyl)amino]carbonyl}phenyl)carbonyl]-1H-benzimidazol-2-yl}carbamate]
IC50 [1, 3]: < 100 nM
IC50 [2, 4]: < 100 nM

COC(=O)Nc1nc2cc(C3c4ccccc4C(=O)N3c3cccc(Br)c3)ccc2[nH]1 (stereo not drawn) [Entry 281, methyl {5-[2-(3-bromophenyl)-3-oxo-2,3-dihydro-1H-isoindol-1-yl]-1H-benzimidazol-2-yl}carbamate]
IC50 [1, 3]: < 100 nM
IC50 [2, 4]: < 100 nM

COC(=O)Nc1nc2ccc(C3(O)c4c(F)cccc4C(=O)N3c3cccc(Cl)c3F)cc2[nH]1 (stereo not drawn) [Entry 347, methyl {6-[2-(3-chloro-2-fluorophenyl)-7-fluoro-1-hydroxy-3-oxo-2,3-dihydro-1H-isoindol-1-yl]-1H-benzimidazol-2-yl}carbamate]
IC50 [1, 3]: < 100 nM
IC50 [2, 4]: < 100 nM

COC(=O)Nc1nc2cc(C3(O)c4ccccc4C(=O)N3C(C)c3cccc(Cl)c3C)ccc2[nH]1 (stereo not drawn) [Entry 200, methyl (5-{2-[1-(3-chloro-2-methylphenyl)ethyl]-1-hydroxy-3-oxo-2,3-dihydro-1H-isoindol-1-yl}-1H-benzimidazol-2-yl)carbamate]
IC50 ([1]; read-out: cRaf-1 IC50): 1000 to 10000 nM
IC50 ([2]; read-out: bRaf IC50): 1000 to 10000 nM

CCC(=O)Nc1nc2cc(C3(O)c4ccccc4C(=O)N3Cc3ccccc3)ccc2[nH]1 (stereo not drawn) [Entry 176, N-{5-[1-hydroxy-3-oxo-2-(phenylmethyl)-2,3-dihydro-1H-isoindol-1-yl]-1H-benzimidazol-2-yl}propanamide]
IC50 ([1]; read-out: cRaf-1 IC50): < 100 nM
IC50 ([2]; read-out: bRaf IC50): < 100 nM

O=C1COc2ccc(C(=O)c3ccccc3-c3nc(-c4ccccc4)no3)cc2N1 [Entry 48, 6-{[2-(3-phenyl-1,2,4-oxadiazol-5-yl)phenyl]carbonyl}-2H-1,4-benzoxazin-3(4H)-one]
IC50 ([1]; read-out: cRaf-1 IC50): ≥ 10000 nM
IC50 ([2]; read-out: bRaf IC50): ≥ 10000 nM

Reference: US7846959B2, “Raf modulators and methods of use” (Exelixis, Inc., priority 2004, dated 2010)
